The numbers were not newly measured in patent US20030124640A1, “Predictive assay for the outcome of IVF” (Royal Free Hospital School of Medicine, priority 1996, published 2003), which cites them from elsewhere.

Read-outs that look alike come from different tables or passages of the source.

What is called Km is the substrate concentration at which the rate is half of its maximum.

In data set [1] the test system is 11βHSD1.
For data set [2], the target named is T1, 11β-HSD2 (Homo sapiens, UniProt P80365).
T1 sequence (P80365 1-405): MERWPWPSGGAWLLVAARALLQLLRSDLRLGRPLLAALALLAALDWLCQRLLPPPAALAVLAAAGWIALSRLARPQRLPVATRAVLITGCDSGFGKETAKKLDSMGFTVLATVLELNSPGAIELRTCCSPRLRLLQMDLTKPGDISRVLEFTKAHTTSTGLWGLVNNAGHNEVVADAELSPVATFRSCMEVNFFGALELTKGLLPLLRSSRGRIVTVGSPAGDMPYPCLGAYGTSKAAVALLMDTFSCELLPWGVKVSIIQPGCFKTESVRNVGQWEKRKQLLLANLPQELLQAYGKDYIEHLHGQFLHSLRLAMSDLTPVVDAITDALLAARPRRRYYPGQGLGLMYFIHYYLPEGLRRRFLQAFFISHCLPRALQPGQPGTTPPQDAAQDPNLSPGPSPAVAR
The following applies: renal isoform 11β-HSD2, NAD+ dependent 11β-dehydrogenase.

The test system of data set [3] is hepatic 11β-HSD.
For data set [4], the system named is ovarian 11β-HSD. The settings on record: for Inhibition of 11β-HSD activity: cultured human granulosa-lutein cells; for Acute effect on ovarian 11β-HSD activity: in vitro.
In data set [5] the target is T2, renal 11β-HSD (Homo sapiens, UniProt P80365).
T2 sequence (P80365 1-405): T1 sequence (P80365 1-405)

Setting [6] is: hepatic isoform 11βHSD1, NADP(H) cofactor, read-out: Km for 11β-dehydrogenase activity.

As to `C[C@]12C[C@H](O)[C@H]3[C@@H](CCC4=CC(=O)CC[C@@]43C)[C@@H]1CC[C@@H]2C(=O)CO` [corticosterone], the Km is approximately 2000 nM in data set [1] (setting [6]) and 26 nM in data set [2].
As to `C[C@]12CCC(=O)C=C1CC[C@@H]1[C@@H]2[C@@H](O)C[C@@]2(C)[C@H]1CC[C@]2(O)C(=O)CO` [cortisol], the results for the Km in data set [1] (setting [6]) and in data set [2] were 17000 nM and 40 nM, respectively.
For the compound `C[C@]12CCC(=O)C=C1CC[C@@H]1[C@@H]2C(=O)C[C@@]2(C)[C@H]1CC[C@]2(O)C(=O)CO` [cortisone], in data set [1] (hepatic isoform 11βHSD1, cortisone to cortisol, read-out: Km for cortisone (11-ketosteroid reductase activity)), the Km was 140 to 272 nM.
For the compound `C[C@]12CC[C@@H]3c4ccc(O)cc4CC[C@H]3[C@@H]1CC[C@@H]2O` [oestradiol], in data set [3], the “Effect on hepatic 11β-HSD activity in vivo” value is recorded as “inhibits”.
For `CC(=O)[C@H]1CC[C@H]2[C@@H]3CC=C4C[C@@H](O)CC[C@]4(C)[C@H]3CC[C@]12C` [pregnenolone], in data set [4], the “Inhibition of 11β-HSD activity” value is reported as “can inhibit” and the “Acute effect on ovarian 11β-HSD activity” value is listed as “inhibit”. For the same compound, the “Acute effect on renal 11β-HSD activity” value in data set [5] was “inhibit”.
In the case of `CC(=O)[C@H]1CC[C@H]2[C@@H]3CCC4=CC(=O)CC[C@]4(C)[C@H]3CC[C@]12C` [progesterone], in data set [4], the “Inhibition of 11β-HSD activity” value was “can inhibit” and the “Acute effect on ovarian 11β-HSD activity” value is “inhibit”. The “Acute effect on renal 11β-HSD activity” value in data set [5] is listed as “inhibit”.
